In patent publication US11338007B2, “Combination formulation of three antiviral compounds” (priority 2016, dated 2022):

Legend:
[1] = Solid-state compatibility of sofosbuvir/velpatasvir SSD/voxilaprevir SSD granules (Table 7); type: physicochemical; conditions: for LS / Total Imp./Deg. Products: granules Lot F
Method: Sofosbuvir, velpatasvir SSD, and voxilaprevir SSD are chemically and physically compatible in the solid-state. The solid-state compatibility of sofosbuvir, velpatasvir SSD, and voxilaprevir SSD was evaluated by preparing a powder blend composed of 49.75% w/w sofosbuvir, 24.88% w/w of velpatasvir SSD, and 24.88% w/w of voxilaprevir SSD, and 0.25% w/w magnesium stearate (added as a lubricant). The powder blend was dry granulated using a roller compactor and then milled. The resulting granules (Lot F) contained 400 mg of sofosbuvir, 100 mg velpatasvir (as 200 mg velpatasvir SSD), and 100 mg voxilaprevir (as 200 mg voxilaprevir SSD) equivalent to the relative compositions in the sofosbuvir/velpatasvir/voxilaprevir tablet: 400/100/100 mg.
The chemical and physical stability of sofosbuvir/velpatasvir SSD/voxilaprevir SSD granules, packaged in glass vials (protected from light), was evaluated for 6 months at 25° C./60% RH and 40° C./75% RH under open and closed conditions. As summarized in Table 7, sofosbuvir, velpatasvir, and voxilaprevir were chemically stable with no increase in total impurities/degradation products of sofosbuvir (remaining at 0.0%), velpatasvir (remaining between 0.4 and 0.5%), and voxilaprevir (remaining between 1.1 and 1.4%) after a 6 month storage period. No upward trend in the content of degradation products was observed over the time period studied.

[2] = Stability of clinical film-coated tablets Batches A-D (Tables 14, 15A-15C); type: physicochemical; conditions: for LS (%): tablets Batch C, 1 g desiccant
Method: FIGS. 10-12 depict additional dissolution profiles for the sofosbuvir/velpatasvir SSD/voxilaprevir SSD tablets having the formulation described in Table 13 and which were used in phase 1, 2, and 3 clinical studies, where the dissolution testing was conducted at pH 5.0 acetate buffer containing 2.0% w/v polysorbate 80. Four batches of the sofosbuvir/velpatasvir SSD/voxilaprevir SSD tablets were tested, with Batch A manufactured at 100 kg and Batches B, C and D manufactured at 145 kg. All other aspects of the formulation and manufacturing process were otherwise equivalent. The four batches were packed in the same commercial configuration: 28 count, 100 mL HPDE bottle with 1 g silica gel desiccant canister and a polyester fiber coil. […] Moreover, for Batch A, the amount dissolved at 30 min remained between 98 and 100% for sofosbuvir, between 90 and 92% for velpatasvir SSD, and between 89 and 93% for voxilaprevir SSD. […] For Batch D, the amount dissolved at 30 min remained at 100% for sofosbuvir, between 90 and 91% for velpatasvir SSD, and between 89 and 91% for voxilaprevir SSD. Release of velpatasvir SSD and voxilaprevir SSD from the sofosbuvir/velpatasvir SSD/voxilaprevir SSD tablets associated with all four Batches was complete after 60 minutes.
Stability data associated with the sofosbuvir/velpatasvir SSD/voxilaprevir SSD film-coated tablets (Batch A) are presented in Table 14. […] No upward trend in the content of degradation products was observed over the time period studied. The water content for packaged tablets remained between 1.9 and 2.3% through 6 months storage at 40° C./75% RH, 30° C./75% RH, and 25° C./60% RH. As summarized in Table 14, the packaged tablets (Batch A) were physically stable with no change in XRPD patterns after 6 months storage.
Stability data associated with the sofosbuvir/velpatasvir SSD/voxilaprevir SSD film-coated tablets (Batches B-D) are presented in Tables 15A-15C, respectively. […] No upward trend in the content of degradation products was observed over the time period studied. The water content for packaged tablets remained between 1.8 and 2.3% through 6 months storage at 40° C./75% RH, 30° C./75% RH, and 25° C./60% RH. The packaged tablets were physically stable with no change in XRPD patterns after 6 months storage.
For Batch D, the packaged tablets had acceptable chemical stability for up to 1 month under all conditions with total impurities/degradation products of sofosbuvir remaining at 0.0%, velpatasvir SSD remaining between 0.7 and 0.8%, and voxilaprevir SSD remaining at 0.0%. No upward trend in the content of degradation products was observed over the time period studied. The water content for packaged tablets remained between 1.9 and 2.3% through 1 month storage at 40° C./75% RH, 30° C./75% RH, and 25° C./60% RH.

[3] = 25° C./60% RH (Closed), 3 months
[4] = 25° C./60% RH (Closed), 6 months
[5] = 40° C./75% RH (Closed), 1 month
[6] = 40° C./75% RH (Closed), 3 months
[7] = 40° C./75% RH (Closed), 6 months
[8] = Batch A, 25° C./60% RH, 3 months
[9] = Batch A, 25° C./60% RH, 6 months
[10] = Batch A, 30° C./75% RH, 3 months
[11] = Batch A, 30° C./75% RH, 6 months
[12] = Batch A, 40° C./75% RH, 1 month
[13] = Batch A, 40° C./75% RH, 3 months
[14] = Batch A, 40° C./75% RH, 6 months

Structure (SMILES): CC(C)OC(=O)C(C)N[P@](=O)(OC[C@H]1O[C@@H](n2ccc(=O)[nH]c2=O)[C@](C)(F)[C@@H]1O)Oc1ccccc1 (stereo in doubt) [sofosbuvir, (S)-isopropyl 2-(((S)-(((2R,3R,4R,5R)-5-(2,4-dioxo-3,4-dihydropyrimidin-1(2H)-yl)-4-fluoro-3-hydroxy-4-methyltetrahydrofuran-2-yl)methoxy)(phenoxy)phosphoryl)amino)propanoate]
- LS [1, 3]: 101.1%
- Total Imp./Deg. Products [1, 3]: 0.0%
- LS [1, 4]: 99.1%
- Total Imp./Deg. Products [1, 4]: 0.0%
- LS [1, 5]: 99.5%
- Total Imp./Deg. Products [1, 5]: 0.0%
- LS [1, 6]: 99.4%
- Total Imp./Deg. Products [1, 6]: 0.0%
- LS [1, 7]: 97.2%
- Total Imp./Deg. Products [1, 7]: 0.0%
- LS ([1]; 40° C./75% RH (Open), 1 month): 101.3%
- Total Imp./Deg. Products ([1]; 40° C./75% RH (Open), 1 month): 0.0%
- LS ([1]; 40° C./75% RH (Open), 3 months): 98.5%
- Total Imp./Deg. Products ([1]; 40° C./75% RH (Open), 3 months): 0.0%
- LS ([1]; 40° C./75% RH (Open), 6 months): 95.6%
- Total Imp./Deg. Products ([1]; 40° C./75% RH (Open), 6 months): 0.0%
- LS ([1]; Initial, 0 months): 103.5%
- Total Imp./Deg. Products ([1]; Initial, 0 months): 0.0%
- total impurities/degradation products ([1]; granules, over 6 month storage at 25° C./60% RH and 40° C./75% RH, open and closed): 0.0%
- LS [2, 8]: 102.7%
- Total Imp./Deg. [2, 8]: 0.0%
- LS [2, 9]: 99.0%
- Total Imp./Deg. [2, 9]: 0.0%
- LS [2, 10]: 100.3%
- Total Imp./Deg. [2, 10]: 0.0%
- LS [2, 11]: 98.1%
- Total Imp./Deg. [2, 11]: 0.0%
- LS [2, 12]: 99.7%
- Total Imp./Deg. [2, 12]: 0.0%
- LS [2, 13]: 101.7%
- Total Imp./Deg. [2, 13]: 0.0%
- LS [2, 14]: 98.7%
- Total Imp./Deg. [2, 14]: 0.0%
- LS ([2]; Batch A, Initial): 99.0%
- Total Imp./Deg. ([2]; Batch A, Initial): 0.0%
- total impurities/degradation products ([2]; Batch A, up to 6 months under all conditions): 0.0%
- LS ([2]; Batch B, 25° C./60% RH, 3 months): 100.7%
- LS ([2]; Batch B, 25° C./60% RH, 6 months): 100.1%
- LS ([2]; Batch B, 30° C./75% RH, 3 months): 98.4%
- LS ([2]; Batch B, 30° C./75% RH, 6 months): 98.8%
- LS ([2]; Batch B, 40° C./75% RH, 1 month): 101.7%
- LS ([2]; Batch B, 40° C./75% RH, 3 months): 99.8%
- LS ([2]; Batch B, 40° C./75% RH, 6 months): 99.0%
- LS ([2]; Batch B, Initial): 100.0%
- Total Imp./Deg. ([2]; Batch B, Initial): 0.0%
- LS ([2]; Batch D, 40° C./75% RH, 1 month): 99.7%
- LS ([2]; Batch D, Initial): 99.8%
- total impurities/degradation products ([2]; Batch D, up to 1 month under all conditions): 0.0%
- total impurities/degradation products ([2]; Batches B and C, up to 6 months under all conditions): 0.0%
- LS (%) ([2]; 25° C./60% RH, 3 months): 98.9%
- LS (%) ([2]; 25° C./60% RH, 6 months): 98.8%
- LS (%) ([2]; 30° C./75% RH, 3 months): 100.1%
- LS (%) ([2]; 30° C./75% RH, 6 months): 99.1%
- LS (%) ([2]; 40° C./75% RH, 1 month): 101.1%
- LS (%) ([2]; 40° C./75% RH, 3 months): 99.4%
- LS (%) ([2]; 40° C./75% RH, 6 months): 98.9%
- LS (%) ([2]; Initial, time 0): 99.1%
